Results from article PMC12164071, “Lysine targeting covalent inhibitors of malarial kinase PfCLK3” (RSC Medicinal Chemistry, 2025).

How the values were obtained:
[1] = biological target: recombinant PfCLK3 (Plasmodium falciparum, UniProt Q8IIL5); assay: TR-FRET kinase assay at Km ATP; type: biochemical; conditions: 2 hour incubation, errors SD, N ≥ 3, * concentration response curve not complete
Procedure: All compounds were then evaluated against recombinant PfCLK3 using a TR-FRET kinase assay (Fig. 5). […]
Time Resolved Förster Resonance Energy Transfer (TR-FRET) Assay
Tr-FRET technology was used to determine kinase activity and Km ATP before profiling compounds. An 11-point half-log serial dilution of each test compound was prepared in 100% DMSO at 100X final test concentration. The dilution series were dispensed onto assay plates with liquid handling machinery using positive displacement. The final DMSO concentration in the assay was 1%. To obtain IC 50 values, full length recombinant PfCLK3 was prepared in 1X assay buffer (50 mM Hepes, 10 mM MgCl2, 1 mM EGTA, 0.01% Tween20, 2 mM TCEP) at a 2X concentration and incubated with compounds for 15 minutes at room temperature before addition of ULight-labelled peptide substrate (MBP) with Km ATP (at 2X concentration). The reaction was centrifuged and incubated for 2 hr at 37 °C. To stop the reaction, 1X Lance detection buffer was added with 1 nM Eu-labelled anti-MBP and 10 mM EDTA, and the reaction was incubated in the dark for 2 hr at room temperature to allow detection to take place. Plate output was read on a Pherastar FSX and data analysed in Graphpad Prism to a 4-parameter curve fit. […]

[2] = tested on: PfCLK3; assay: Tryptic digest and tandem mass spectrometry of PfCLK3 adducts; type: binding, Plasmodium falciparum; conditions: PfCLK3 pretreated with compound, trypsin digest, tandem MS
Text: PfCLK3 pretreated with either compound 4 or 9 was then digested with trypsin, and the resulting tryptic peptides analysed by tandem mass spectrometry (Fig. 4d and e). This subset of compounds sampled azaindole regioisomers as well as both aldehyde warheads used. […] However, possible modification of a peptide containing Lys494 and Lys503 was also observed. This is a curious result, as a secondary adduct was not observed in the intact spectrum. Lys503 is distal from the ATP binding site, whereas Lys494 lies at its entrance. Adduct formation may be occurring with Lys494 as 4 approaches the binding-site.
This is consistent with the intact mass spectrum, which detected a doubly modified species in ∼20% abundance versus the singly modified protein. […]
For intact protein mass spectrometry, compounds were incubated with a 5-fold excess of compound in buffer containing 20 mM HEPES pH 7.4, 150 mM NaCl, 1 mM TCEP, and 1 mM MgCl 2. […] Samples were incubated at room temperature for 4 hours before 10 μL alliquots were analysed by LC-MS. […]
The resulting peptide mixture was analyzed by high resolution nESI FT-ICR MS using a 12 Telsa Solarix 2XR mass spectrometer (Bruker Daltonics) equipped with a nanomate infusion robot (Advion Biosciences). […]

Chain of recombinant PfCLK3 (Q8IIL5 entry or part of it): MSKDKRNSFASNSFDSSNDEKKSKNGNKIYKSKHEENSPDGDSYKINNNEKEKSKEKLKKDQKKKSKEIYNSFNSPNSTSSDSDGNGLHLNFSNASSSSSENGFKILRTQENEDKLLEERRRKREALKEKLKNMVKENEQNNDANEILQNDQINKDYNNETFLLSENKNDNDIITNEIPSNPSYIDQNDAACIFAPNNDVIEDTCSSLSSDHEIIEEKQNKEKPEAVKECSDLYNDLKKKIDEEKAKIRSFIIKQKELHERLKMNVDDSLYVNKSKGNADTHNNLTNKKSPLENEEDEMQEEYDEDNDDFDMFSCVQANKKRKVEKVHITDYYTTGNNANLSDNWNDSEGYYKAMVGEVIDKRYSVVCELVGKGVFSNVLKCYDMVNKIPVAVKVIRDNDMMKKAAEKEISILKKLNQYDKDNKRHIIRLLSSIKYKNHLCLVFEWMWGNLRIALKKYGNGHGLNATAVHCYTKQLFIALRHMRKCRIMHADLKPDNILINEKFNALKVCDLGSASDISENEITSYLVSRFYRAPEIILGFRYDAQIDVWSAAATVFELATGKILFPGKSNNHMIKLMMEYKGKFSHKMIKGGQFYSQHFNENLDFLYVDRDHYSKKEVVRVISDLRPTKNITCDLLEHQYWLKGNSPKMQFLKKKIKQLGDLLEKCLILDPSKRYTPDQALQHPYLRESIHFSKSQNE

Compound: CCN(CC)Cc1ccc(OC)c(-c2cc3c(-c4ccc(O)c(C=O)c4)ccnc3[nH]2)c1 [Compound 4]
- IC50 ([1]; IC50 (apparent), Km ATP (5 μM)): 16 ± 9 nM
- IC50 ([1]; pIC50, Km ATP (5 μM)): 16.2 nM
- site of modification [2]: Lys394 was the predominant site of modification

Compound: C#Cc1ccc(-c2c[nH]c3ncc(-c4cc(CN(CC)CC)ccc4OC)cc23)cc1C=O [Compound 9]
- IC50 ([1]; IC50 (apparent), Km ATP (5 μM)): 16 ± 4 nM
- IC50 ([1]; pIC50, Km ATP (5 μM)): 16.6 nM
- site of modification [2]: pyridinium modification was observed in peptides containing both the target Lys394, and Lys373
